Holding throughout (assay type): cell-based
One data set has as its system CWR22RV1 cells. Put plainly: Cytotoxicity assay (AlamarBlue, 72 hours). To be noted: 72 hours treatment, concentration not given. The protocol: (§1) Compound stock solutions of 10 mM were prepared with 100% DMSO and shaken for 10-15 seconds. The compound stock solutions were centrifuged at 12000 rpm (13523 rcf.) for 5 minutes and record the turbidity or precipitation state with a photo snapshot. The compound stock solutions were resuspended by shaking for 10-15 seconds, and serially diluted with 100% DMSO solution to make the compound concentration to 1000 μM, then to 100, 10, and 1 μM, and then 10-fold diluted with medium to 100, 10, 1, 0.1 μM (final 10% DMSO/medium) to complete compound test sample preparation. Compound treatment was performed by adding 10 μL of compound test sample to cells in each well of a 96-well plate (final 1% DMSO/medium).
(§2) Cells (CWR22Rv1 cells or VCaP cells) were cultured in RPMI-1640 medium supplemented with 10% fetal bovine serum, 10,000 U/mL penicillin and 10,000 μg/mL streptomycin. Cells were cultured at 37° C. in a humidified 5% CO2 incubator.
(§3) Cells were seeded in a 96-well plate (1×10^4 cells/well). 10 μL of the above compound test sample was added to each well of the 96-well plate on next day. After 72 hours of compound treatment, 10 μL of AlamaBlue reagent was added to each of 96 wells and incubated for 4 hours. The fluorescence value at Ex/Em=560/590 nm was read with a microplate reader, and the cytotoxicity (%) was calculated.
(§4) According to the above method, the compounds prepared above were subjected to cytotoxicity test with CWR22RV1 cells and VCaP cells.
For orientation: The colour change of resazurin is a common sign of viable cells or microbes.

The subject of a further data set is VCaP cells. Description: Cytotoxicity assay (AlamarBlue, 72 hours). The note with it: 72 hours treatment, concentration not given. The protocol:
as §1, §2, §3, §4

For data set [1], the system named is full-length androgen receptor. Description: Western blot: degradation of full-length androgen receptor in CWR22RV1 cells. To be noted: overnight. The procedure:
CWR22Rv1 cells were maintained in RPMI medium supplemented with 10% fetal bovine serum and 1% penicillin-streptomycin at 37° C. in a humidified environment with 5% CO2.
CWR22Rv1 (5×10^5 cells) were seeded in each well of a 6-well plate and incubated overnight. Before compound treatment, the medium in the wells was replaced with a new medium. Cells were treated with different concentrations of compound overnight. Subsequently, cells were harvested by adding cold PBS and scraping cells. Cells were lysed according to general procedures and Western blot assays were performed to assess the ability of compounds to degrade full-length androgen receptor or androgen receptor splice variant 7. The cells or cell lysates were kept on ice at all times.
The following reagents were used in this experiment. Phosphate buffered saline (PBS) (Hyclone, SH30028.02), fetal bovine serum (Hyclone, SH30084.23, Lot AC14563276), penicillin-streptomycin solution (Hyclone, SV30010), 0.5% Trypsin-EDTA (Gibco, 15400-054), CST Lysis Buffer (CST-9803), Halt™ Protease and Phosphatase Inhibitor (ThermoFisher, 78442), Coomassie (Bradford) Protein Assay (Coomassie (Bradford) protein assay) (ThermoFisher, 23200), androgen receptor antibody (Cell Siginaling, CST-5153S), GAPDH antibody (Cell Siginaling, CST-5174S), HRP-goat-anti-rabbit (Jackson Immuno Research, 111-035-003), skim milk, SuperSignal West Pico Maximum Sensitivity substrate (ThermoFisher, 34080).
The compound prepared above was analyzed for its ability to degrade full-length androgen receptor and androgen receptor splice variant 7 in CWR22RV1 cells by Western blotting according to the method shown in item B.3-2 above.
Background: In western blotting, separated proteins are transferred to a membrane and probed.

Where [2] appears, read: compound concentration 0.1 (unit not given).
Where [3] appears, read: compound concentration 1 (unit not given).
Setting [4] is: compound concentration 10 (unit not given).

The structures appear in SMILES notation.

For `Cc1ncsc1-c1ccc(CNC(=O)[C@@H]2C[C@H](O)CN2C(=O)[C@@H](NC(=O)CCC#Cc2ccc(COc3ccc(C4CCN(C5=Nn6c(nnc6C(F)(F)F)CC5)CC4)cc3)cc2)C(C)(C)C)cc1` [Compound 2, (2S,4S)-1-((S)-3,3-dimethyl-2-(5-(4-((4-(1-(3-(trifluoromethyl)-7,8-dihydro-[1,2,4]triazolo[4,3-b]pyridazin-6-yl)piperidin-4-yl)phenoxy)methyl)phenyl)pent-4-ynamido)butanoyl)-4-hydroxy-N-(4-(4-methylthiazol-5-yl)benzyl)pyrrolidine-2-carboxamide], in the data set with CWR22RV1 cells, the “Cytotoxicity, CWR22RV1 cells (cell viability %)” value was “+ (60-80% : +)”.
Take `Cc1ncsc1-c1ccc(CNC(=O)[C@@H]2C[C@H](O)CN2C(=O)[C@@H](NC(=O)COCCCOc2ccc(C3CCN(C4=Nn5c(nnc5C(F)(F)F)CC4)CC3)cc2)C(C)(C)C)cc1` [Compound 20, (2S,4S)-1-((S)-3,3-dimethyl-2-(2-(3-(4-(1-(3-(trifluoromethyl)-7,8-dihydro-[1,2,4]triazolo[4,3-b]pyridazin-6-yl)piperidin-4-yl)phenoxy)propoxy)acetamido)butanoyl)-4-hydroxy-N-(4-(4-methylthiazol-5-yl)benzyl)pyrrolidine-2-carboxamide]: the “Cytotoxicity, VCaP cells (cell viability %)” value in the data set on VCaP cells is “++ (40-60% : ++)”. The “Cytotoxicity, CWR22RV1 cells (cell viability %)” value with CWR22RV1 cells is “+++ (<40% : +++)”.
Taken in the same sequence, the figures for `Cc1ncsc1-c1ccc(CNC(=O)[C@@H]2C[C@H](O)CN2C(=O)[C@@H](NC(=O)COCCCCCCCOc2ccc(C3CCN(C4=Nn5c(nnc5C(F)(F)F)CC4)CC3)cc2)C(C)(C)C)cc1` [Compound 23, (2S,4S)-1-((S)-3,3-dimethyl-2-(2-((7-(4-(1-(3-(trifluoromethyl)-7,8-dihydro-[1,2,4]triazolo[4,3-b]pyridazin-6-yl)piperidin-4-yl)phenoxy)heptyl)oxy)acetamido)butanoyl)-4-hydroxy-N-(4-(4-methylthiazol-5-yl)benzyl)pyrrolidine-2-carboxamide] were “+++ (<40% : +++)” and “+++ (<40% : +++)”.
For the molecule `Cc1ncsc1-c1ccc(CNC(=O)[C@@H]2C[C@H](O)CN2C(=O)[C@@H](NC(=O)CCOCCOCCN2CCN(c3ccc(C#Cc4ccc(C5CCN(C6=Nn7c(nnc7C(F)(F)F)CC6)CC5)cc4)cn3)CC2)C(C)(C)C)cc1` [Compound 4, (2S,4S)-1-((S)-3,3-dimethyl-2-(3-(2-(2-(4-(5-((4-(1-(3-(trifluoromethyl)-7,8-dihydro-[1,2,4]triazolo[4,3-b]pyridazin-6-yl)piperidin-4-yl)phenyl)ethynyl)pyridin-2-yl)piperazin-1-yl)ethoxy)ethoxy)propanamido)butanoyl)-4-hydroxy-N-(4-(4-methylthiazol-5-yl)benzyl)pyrrolidine-2-carboxamide], the “Cytotoxicity, CWR22RV1 cells (cell viability %)” value with CWR22RV1 cells is given as “+ (60-80% : +)”.
Turning to `Cc1ncsc1-c1ccc(CNC(=O)[C@@H]2C[C@H](O)CN2C(=O)[C@@H](NC(=O)C2CCC(C(=O)N3CCC(C#Cc4ccc(C5CCN(C6=Nn7c(nnc7C(F)(F)F)CC6)CC5)cc4)CC3)CC2)C(C)(C)C)cc1` (stereo in doubt) [Compound 34, 1-(3,3-dimethyl-2-(4-(4-((4-(1-(3-(trifluoromethyl)-7,8-dihydro-[1,2,4]triazolo[4,3-b]pyridazin-6-yl)piperidin-4-yl)phenyl)ethynyl)piperidine-1-carbonyl)cyclohexane-1-carboxamido)butanoyl)-4-hydroxy-N-(4-(4-methylthiazol-5-yl)benzyl)pyrrolidine-2-carboxamide], in the data set with VCaP cells, the “Cytotoxicity, VCaP cells (cell viability %)” value was “+++ (<40% : +++)”. The “Cytotoxicity, CWR22RV1 cells (cell viability %)” value in the data set on CWR22RV1 cells is listed as “+ (60-80% : +)”.
Turning to `Cc1ncsc1-c1ccc(CNC(=O)[C@@H]2C[C@H](O)CN2C(=O)[C@@H](NC(=O)COCCCOCCNC(=O)COc2ccc(C3CCN(C4=Nn5c(nnc5C(F)(F)F)CC4)CC3)cc2)C(C)(C)C)cc1` [Compound 3, (2S,4S)-1-((S)-2-tert-butyl-4,14-dioxo-15-(4-(1-(3-(trifluoromethyl)-7,8-dihydro-[1,2,4]triazolo[4,3-b]pyridazin-6-yl)piperidin-4-yl)phenoxy)-6,10-dioxa-3,13-diazapentadecane)-4-hydroxy-N-(4-(4-methylthiazol-5-yl)benzyl)pyrrolidine-2-carboxamide], in the data set with CWR22RV1 cells, the “Cytotoxicity, CWR22RV1 cells (cell viability %)” value is “++ (40-60% : ++)”.
Consider `Cc1cc([C@H](C(=O)N2C[C@H](O)C[C@H]2C(=O)N[C@@H](CC(=O)NCCOCCCCOc2ccc(C3CCN(C4=Nn5c(nnc5C(F)(F)F)CC4)CC3)cc2)c2ccc(-c3scnc3C)cc2)C(C)C)on1` [Compound 6, (2S,4R)-4-hydroxy-1-((R)-3-methyl-2-(3-methylisoxazol-5-yl)butanoyl)-N—((S)-1-(4-(4-methylthiazol-5-yl)phenyl)-3-oxo-3-(2-(4-(4-(1-(3-(trifluoromethyl)-7,8-dihydro-[1,2,4]triazolo[4,3-b]pyridazin-6-yl)piperidin-4-yl)phenoxy)butoxy)ethylamino)propyl)pyrrolidine-2-carboxamide], for which the “Cytotoxicity, CWR22RV1 cells (cell viability %)” value in the data set with CWR22RV1 cells is “− (<80% : −)”.
Take `Cc1ncsc1-c1ccc(CNC(=O)[C@@H]2C[C@H](O)CN2C(=O)[C@@H](NC(=O)COCCCCOc2ccc(C3CCN(C4=Nn5c(nnc5-c5ccc(C(F)(F)F)cc5)CC4)CC3)cc2)C(C)(C)C)cc1` [Compound 8, (2S,4S)-1-((S)-3,3-dimethyl-2-(2-(4-(4-(1-(3-(4-(trifluoromethyl)phenyl)-7,8-dihydro-[1,2,4]triazolo[4,3-b]pyridazin-6-yl)piperidin-4-yl)phenoxy)butoxy)acetamido)butanoyl)-4-hydroxy-N-(4-(4-methylthiazol-5-yl)benzyl)pyrrolidine-2-carboxamide]: in the data set on CWR22RV1 cells, the “Cytotoxicity, CWR22RV1 cells (cell viability %)” value is given as “+++ (<40% : +++)”. Further, the “Degradation ability for full-length androgen receptor (residual rate %)” value is on record as “− (>80%; −)” in data set [1] (setting [2]), “+ (60-80%: +)” in data set [1] (setting [3]) and “+++ (<40%: +++)” in data set [1] (setting [4]).
The like results for `Cc1ncsc1-c1ccc(CNC(=O)C2CC(O)CN2C(=O)C(NC(=O)CC2O[C@H](COc3ccc(C4CCN(C5=Nn6c(nnc6C(F)(F)F)CC5)CC4)cc3)[C@@H](O)[C@H]2O)C(C)(C)C)cc1` (stereo partly drawn) [Compound 29, 1-(2-(2-((3R,4S,5R)-3,4-dihydroxy-5-((4-(1-(3-(trifluoromethyl)-7,8-dihydro-[1,2,4]triazolo[4,3-b]pyridazin-6-yl)piperidin-4-yl)phenoxy)methyl)tetrahydrofuran-2-yl)acetamido)-3,3-dimethylbutanoyl)-4-hydroxy-N-(4-(4-methylthiazol-5-yl)benzyl)pyrrolidine-2-carboxamide] were, in that order, “− (<80% : −)”, “+ (60-80%: +)”, “− (>80%; −)” and “− (>80%; −)”.
The like results for `Cc1ncsc1-c1ccc(CNC(=O)[C@@H]2C[C@H](O)CN2C(=O)C(NC(=O)CC2O[C@H](CNC(=O)COc3ccc(C4CCN(C5=Nn6c(nnc6C(F)(F)F)CC5)CC4)cc3)[C@@H](O)[C@H]2O)C(C)(C)C)cc1` (stereo partly drawn) [Compound 7, 1-(2-(2-((3R,4S,5R)-3,4-dihydroxy-5-((2-(4-(1-(3-(trifluoromethyl)-7,8-dihydro-[1,2,4]triazolo[4,3-b]pyridazin-6-yl)piperidin-4-yl)phenoxy)acetamido)methyl)tetrahydrofuran-2-yl)acetamido)-3,3-dimethylbutanoyl)-4-hydroxy-N-(4-(4-methylthiazol-5-yl)benzyl)pyrrolidine-2-carboxamide] were, in that order, “− (<80% : −)”, “− (>80%; −)”, “− (>80%; −)” and “− (>80%; −)”.

For the origin of these results see patent publication US12152035B2, “Androgen receptor binding molecule and use thereof” (Industrial Technology Research Institute, priority 2020, dated 2024).
